Converted amounts (≈) assume the structure as drawn.
Assays:
Format in all cases: functional
[1] = test system: Pseudomonas aeruginosa; assay: Antibacterial activity against Pseudomonas aeruginosa MTCC 424 after 24 hr by broth dilution method; settings: MTCC 424, 24 h
[2] = test system: Micrococcus luteus; assay: Antibacterial activity against Micrococcus luteus MTCC 1538 after 24 hr by broth dilution method; settings: MTCC 1538, 24 h
[3] = test system: Bacillus pumilus; assay: Antibacterial activity against Bacillus pumilus MTCC 1456 after 24 hr by broth dilution method; settings: MTCC 1456, 24 h
[4] = test system: Staphylococcus aureus; assay: Antibacterial activity against Staphylococcus aureus MTCC 1430 after 24 hr by broth dilution method; settings: MTCC 1430, 24 h
[5] = test system: Bacillus subtilis; assay: Antibacterial activity against Bacillus subtilis MTCC 441 after 24 hr by broth dilution method; settings: MTCC 441, 24 h
[6] = test system: Pseudomonas fluorescens; assay: Antibacterial activity against Pseudomonas fluorescens MTCC 2421 at 1000 ug/ml after 18 hr by cup-plate method; settings: MTCC 2421, 18 h, read-out: DIZ
[7] = test system: Pseudomonas fluorescens; assay: Antibacterial activity against Pseudomonas fluorescens MTCC 2421 at 1500 ug/ml after 18 hr by cup-plate method; settings: MTCC 2421, 18 h, read-out: DIZ
[8] = test system: Pseudomonas fluorescens; assay: Antibacterial activity against Pseudomonas fluorescens MTCC 2421 at 500 ug/ml after 18 hr by cup-plate method; settings: MTCC 2421, 18 h, read-out: DIZ
[9] = test system: Pseudomonas fluorescens; assay: Antibacterial activity against Pseudomonas fluorescens MTCC 2421 at 200 ug/ml after 18 hr by cup-plate method; settings: MTCC 2421, 18 h, read-out: DIZ
[10] = test system: Penicillium chrysogenum; assay: Antifungal activity against Penicillium chrysogenum MTCC 161 at 1500 ug/ml after 18 hr by cup-plate method; settings: MTCC 161, 18 h, read-out: DIZ
[11] = test system: Penicillium chrysogenum; assay: Antifungal activity against Penicillium chrysogenum MTCC 161 at 1000 ug/ml after 18 hr by cup-plate method; settings: MTCC 161, 18 h, read-out: DIZ
[12] = test system: Penicillium chrysogenum; assay: Antifungal activity against Penicillium chrysogenum MTCC 161 at 500 ug/ml after 18 hr by cup-plate method; settings: MTCC 161, 18 h, read-out: DIZ
[13] = test system: Penicillium chrysogenum; assay: Antifungal activity against Penicillium chrysogenum MTCC 161 at 200 ug/ml after 18 hr by cup-plate method; settings: MTCC 161, 18 h, read-out: DIZ
[14] = test system: Penicillium chrysogenum; assay: Antifungal activity against Penicillium chrysogenum MTCC 161 at 100 ug/ml after 18 hr by cup-plate method; settings: MTCC 161, 18 h, read-out: DIZ
[15] = test system: Aspergillus niger; assay: Antifungal activity against Aspergillus niger MTCC 2546 at 1000 ug/ml after 18 hr by cup-plate method; settings: MTCC 2546, 18 h, read-out: DIZ
[16] = test system: Aspergillus niger; assay: Antifungal activity against Aspergillus niger MTCC 2546 at 1500 ug/ml after 18 hr by cup-plate method; settings: MTCC 2546, 18 h, read-out: DIZ
[17] = test system: Aspergillus niger; assay: Antifungal activity against Aspergillus niger MTCC 2546 at 500 ug/ml after 18 hr by cup-plate method; settings: MTCC 2546, 18 h, read-out: DIZ
[18] = test system: Aspergillus niger; assay: Antifungal activity against Aspergillus niger MTCC 2546 at 100 ug/ml after 18 hr by cup-plate method; settings: MTCC 2546, 18 h, read-out: DIZ
[19] = test system: Aspergillus niger; assay: Antifungal activity against Aspergillus niger MTCC 2546 at 200 ug/ml after 18 hr by cup-plate method; settings: MTCC 2546, 18 h, read-out: DIZ
[20] = test system: Escherichia coli; assay: Antibacterial activity against Escherichia coli MTCC 1573 at 1500 ug/ml after 18 hr by cup-plate method; settings: MTCC 1573, 18 h, read-out: DIZ
[21] = test system: Escherichia coli; assay: Antibacterial activity against Escherichia coli MTCC 1573 at 500 ug/ml after 18 hr by cup-plate method; settings: MTCC 1573, 18 h, read-out: DIZ
[22] = test system: Escherichia coli; assay: Antibacterial activity against Escherichia coli MTCC 1573 at 1000 ug/ml after 18 hr by cup-plate method; settings: MTCC 1573, 18 h, read-out: DIZ
[23] = test system: Escherichia coli; assay: Antibacterial activity against Escherichia coli MTCC 1573 at 200 ug/ml after 18 hr by cup-plate method; settings: MTCC 1573, 18 h, read-out: DIZ
[24] = test system: Escherichia coli; assay: Antibacterial activity against Escherichia coli MTCC 1573 at 100 ug/ml after 18 hr by cup-plate method; settings: MTCC 1573, 18 h, read-out: DIZ
[25] = test system: Pseudomonas fluorescens; assay: Antibacterial activity against Pseudomonas fluorescens MTCC 2421 at 100 ug/ml after 18 hr by cup-plate method; settings: MTCC 2421, 18 h, read-out: DIZ
[26] = test system: Pseudomonas aeruginosa; assay: Antibacterial activity against Pseudomonas aeruginosa MTCC 424 at 1500 ug/ml after 18 hr by cup-plate method; settings: MTCC 424, 18 h, read-out: DIZ
[27] = test system: Pseudomonas aeruginosa; assay: Antibacterial activity against Pseudomonas aeruginosa MTCC 424 at 1000 ug/ml after 18 hr by cup-plate method; settings: MTCC 424, 18 h, read-out: DIZ

`Cc1cc(/N=C/c2cccc3ccccc23)no1` showed an MIC [1] of 300 µg/mL (≈ 1270 µM), an MIC [2] of 200 µg/mL (≈ 846 µM) and an MIC [3] of 300 µg/mL (≈ 1270 µM). The MIC [4] was 400 µg/mL (≈ 1690 µM), the MIC [5] was 300 µg/mL (≈ 1270 µM) and the zone of inhibition at 1000 µg/mL [6] was 18 mm. For the same molecule, the zone of inhibition at 1500 µg/mL [7] was 19 mm, the zone of inhibition at 500 µg/mL [8] was 15 mm and the zone of inhibition at 200 µg/mL [9] was 13 mm. The zone of inhibition at 1500 µg/mL [10] was 20 mm, the zone of inhibition at 1000 µg/mL [11] was 19 mm and the zone of inhibition at 500 µg/mL [12] was 18 mm. It also gave a zone of inhibition at 200 µg/mL [13] of 16 mm, a zone of inhibition at 100 µg/mL [14] of 15 mm and a zone of inhibition at 1000 µg/mL [15] of 20 mm. The zone of inhibition at 1500 µg/mL [16] was 21 mm, the zone of inhibition at 500 µg/mL [17] was 19 mm and the zone of inhibition at 100 µg/mL [18] was 13 mm. The zone of inhibition at 200 µg/mL [19] was 18 mm, the zone of inhibition at 1500 µg/mL [20] was 17 mm and the zone of inhibition at 500 µg/mL [21] was 14 mm. It also gave a zone of inhibition at 1000 µg/mL [22] of 15 mm, a zone of inhibition at 200 µg/mL [23] of 13 mm and a zone of inhibition at 100 µg/mL [24] of 12 mm. The zone of inhibition at 100 µg/mL [25] was 11 mm, the zone of inhibition at 1500 µg/mL [26] was 20 mm and the zone of inhibition at 1000 µg/mL [27] was 18 mm.

— ChEMBL document CHEMBL3045835, “Comparative study of conventional and microwave-assisted synthesis of some Schiff bases and their potential as antimicrobial agents” (2012)
